According to US10968236B2, “TYK2 inhibitors and uses thereof” (Nimbus Lakshmi, Inc., priority 2015, dated 2021):

Experiments:
TYK2 = TYK2 (Homo sapiens (Human), UniProt P29597); assay: Tyk2 activity inhibition assay (radioactive kinase / Caliper assay); assay type: biochemical
[1] = system: GM-CSF induced pSTAT5 (JAK2-pSTAT5); assay: GM-CSF Induced pSTAT5 in human PBMC; assay type: cell-based; conditions: GM-CSF 5 ng/mL
Experimental: GM-CSF Induced pSTAT5 in human PBMC. Cells are prepared for analysis as in the above procedure and 15 μl of GM-CSF (final concentration 5 ng/mL) is added for 20 minutes prior to pSTAT5 and total STAT5 analysis using cell lysates prepared and analyzed by MSD reagents as per manufacturer protocol. The final DMSO concentration of compound in the assay is 0.1%.
(§1) The compound numbers correspond to the compound numbers in Table 1. Compounds having an activity designated as “A” provided an EC50≤2 μM; compounds having an activity designated as “B” provided a EC50 of 2-20 μM, and compounds having an activity designated as “C” provided an EC50>20 μM.

JAK2 = JAK2 (Homo sapiens (Human), UniProt O60674); assay: JAK2 activity inhibition assay (radioactive kinase / Caliper assay); assay type: biochemical
JAK2, sequence (O60674 whole entry): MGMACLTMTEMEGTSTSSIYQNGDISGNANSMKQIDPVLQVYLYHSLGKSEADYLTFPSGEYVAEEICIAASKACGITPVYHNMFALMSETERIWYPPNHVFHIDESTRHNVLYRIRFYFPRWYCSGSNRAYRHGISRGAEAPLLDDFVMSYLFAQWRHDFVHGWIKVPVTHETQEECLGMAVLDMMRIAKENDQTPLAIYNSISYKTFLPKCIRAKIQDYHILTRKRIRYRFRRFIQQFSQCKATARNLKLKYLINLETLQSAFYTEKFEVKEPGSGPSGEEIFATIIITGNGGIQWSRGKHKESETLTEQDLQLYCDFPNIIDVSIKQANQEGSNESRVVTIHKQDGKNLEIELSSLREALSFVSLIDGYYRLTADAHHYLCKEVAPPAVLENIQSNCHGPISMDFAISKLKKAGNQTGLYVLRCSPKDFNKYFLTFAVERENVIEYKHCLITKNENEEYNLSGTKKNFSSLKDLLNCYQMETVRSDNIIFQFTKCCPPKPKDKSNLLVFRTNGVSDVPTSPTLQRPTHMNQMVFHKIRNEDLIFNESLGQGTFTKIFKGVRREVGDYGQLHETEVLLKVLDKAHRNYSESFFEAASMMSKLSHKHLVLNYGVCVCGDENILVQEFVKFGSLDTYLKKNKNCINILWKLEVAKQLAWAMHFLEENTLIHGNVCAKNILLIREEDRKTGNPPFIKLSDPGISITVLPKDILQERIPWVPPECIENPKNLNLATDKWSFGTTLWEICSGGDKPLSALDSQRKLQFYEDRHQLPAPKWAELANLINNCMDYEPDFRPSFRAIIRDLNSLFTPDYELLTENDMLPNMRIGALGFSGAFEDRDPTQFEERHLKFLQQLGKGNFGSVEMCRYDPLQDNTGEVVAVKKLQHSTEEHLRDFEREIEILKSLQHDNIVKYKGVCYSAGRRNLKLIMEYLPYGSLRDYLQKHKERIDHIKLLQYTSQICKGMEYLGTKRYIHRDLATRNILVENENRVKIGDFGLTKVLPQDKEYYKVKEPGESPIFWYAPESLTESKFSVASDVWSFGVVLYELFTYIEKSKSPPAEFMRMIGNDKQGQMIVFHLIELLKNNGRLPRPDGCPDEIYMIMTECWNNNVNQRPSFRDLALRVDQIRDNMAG

[2] = system: IL-12 induced pSTAT4 (Tyk2-pSTAT4); assay: IL-12 Induced pSTAT4 in human PBMC; assay type: cell-based; conditions: IL-12 1.7 ng/mL
Experimental: IL-12 Induced pSTAT4 in human PBMC. Human PBMC are isolated from buffy coat and are stored frozen for assays as needed. Cells for assay are thawed and resuspended in complete media containing serum, then cells are diluted to 1.67 E6 cells/ml so that 120 μl per well is 200,000 cells. 15 μl of compound or DMSO is added to the well at the desired concentrations and incubated at 1 hr at 37 C. 15 μl of stimulus (final concentration of 1.7 ng/mL IL-12) is added for 30 minutes prior to pSTAT4 and total STAT4 analysis using cell lysates prepared and analyzed by MSD reagents as per manufacturer protocol. The final DMSO concentration of compound in the assay is 0.1%.
as §1

TYK2, sequence (P29597 whole entry): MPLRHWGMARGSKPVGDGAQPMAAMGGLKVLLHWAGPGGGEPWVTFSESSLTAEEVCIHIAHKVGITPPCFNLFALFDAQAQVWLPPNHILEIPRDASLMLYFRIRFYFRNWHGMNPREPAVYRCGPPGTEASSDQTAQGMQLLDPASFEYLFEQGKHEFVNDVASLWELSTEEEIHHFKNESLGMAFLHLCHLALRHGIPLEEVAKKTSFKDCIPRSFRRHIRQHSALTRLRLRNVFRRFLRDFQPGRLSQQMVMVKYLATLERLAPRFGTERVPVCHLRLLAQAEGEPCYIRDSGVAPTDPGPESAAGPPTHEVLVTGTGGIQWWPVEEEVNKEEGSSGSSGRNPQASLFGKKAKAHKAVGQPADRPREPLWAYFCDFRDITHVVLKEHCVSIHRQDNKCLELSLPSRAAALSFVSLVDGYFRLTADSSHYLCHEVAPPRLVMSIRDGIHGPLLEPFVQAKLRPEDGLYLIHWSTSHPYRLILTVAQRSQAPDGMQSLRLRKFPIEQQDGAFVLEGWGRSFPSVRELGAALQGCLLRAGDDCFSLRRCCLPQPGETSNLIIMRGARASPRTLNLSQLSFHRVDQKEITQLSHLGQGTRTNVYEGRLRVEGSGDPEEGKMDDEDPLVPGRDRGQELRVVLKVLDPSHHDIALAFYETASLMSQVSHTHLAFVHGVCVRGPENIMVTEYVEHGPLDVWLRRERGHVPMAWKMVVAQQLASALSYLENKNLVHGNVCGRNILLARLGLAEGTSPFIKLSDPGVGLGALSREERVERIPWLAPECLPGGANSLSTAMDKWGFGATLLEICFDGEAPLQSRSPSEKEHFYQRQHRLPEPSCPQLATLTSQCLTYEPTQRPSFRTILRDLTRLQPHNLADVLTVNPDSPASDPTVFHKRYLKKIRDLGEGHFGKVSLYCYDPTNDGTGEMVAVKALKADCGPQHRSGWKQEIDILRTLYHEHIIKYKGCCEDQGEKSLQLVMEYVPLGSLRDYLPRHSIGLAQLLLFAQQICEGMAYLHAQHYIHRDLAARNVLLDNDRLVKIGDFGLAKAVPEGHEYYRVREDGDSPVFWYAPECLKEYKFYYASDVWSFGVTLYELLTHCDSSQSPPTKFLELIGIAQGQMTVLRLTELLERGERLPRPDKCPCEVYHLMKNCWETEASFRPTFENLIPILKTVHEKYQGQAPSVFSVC

Compound	Ki (TYK2) [µM]	EC50 [1] [µM]	Ki (JAK2) [µM]	EC50 [2] [µM]
O=C1NCc2nc(-c3c(F)cccc3F)cc(Nc3ccc(N4C[C@H]5CC[C@@H](C4)O5)cn3)c21 [Compound I-4, 4-((5-((1R,5S)-8-oxa-3-azabicyclo[3.2.1]octan-3-yl)pyridin-2-yl)amino)-2-(2,6-difluorophenyl)-6,7-dihydro-5H-pyrrolo[3,4-b]pyridin-5-one]	≤ 0.01	≤ 2	0.01 to 0.1	≤ 2
CC1(C)CNc2nc(Nc3cc(-c4c(F)cccc4F)nc4c3C(=O)NC4)ccc21 [Compound I-10, 2-(2,6-difluorophenyl)-4-((3,3-dimethyl-2,3-dihydro-1H-pyrrolo[2,3-b]pyridin-6-yl)amino)-6,7-dihydro-5H-pyrrolo[3,4-b]pyridin-5-one]	≤ 0.01	≤ 2	0.01 to 0.1	≤ 2
CCNC(=O)[C@@](C)(O)c1ccc(Nc2nc(-c3c(F)cccc3F)nc3c2C(=O)NC3)cc1 [Compound I-15, (S)-2-(4-((2-(2,6-difluorophenyl)-5-oxo-6,7-dihydro-5H-pyrrolo[3,4-d]pyrimidin-4-yl)amino)phenyl)-N-ethyl-2-hydroxypropanamide]	≤ 0.01	2 to 20	0.01 to 0.1	≤ 2
O=C1NCc2nc(-c3c(F)cccc3F)cc(Nc3cc4c(cn3)CCN4)c21 [Compound I-17, 2-(2,6-difluorophenyl)-4-((2,3-dihydro-1H-pyrrolo[3,2-c]pyridin-6-yl)amino)-6,7-dihydro-5H-pyrrolo[3,4-b]pyridin-5-one]	≤ 0.01	2 to 20	0.01 to 0.1	≤ 2
O=C1NCc2nc(-c3c(F)cccc3F)cc(Nc3ccc4c(n3)NCCCO4)c21 [Compound I-18, 2-(2,6-difluorophenyl)-4-((2,3,4,5-tetrahydropyrido[3,2-b][1,4]oxazepin-7-yl)amino)-6,7-dihydro-5H-pyrrolo[3,4-b]pyridin-5-one]	≤ 0.01	2 to 20	0.01 to 0.1	≤ 2
O=C1NCc2nc(-c3c(F)cccc3F)cc(Nc3ccc(N4CCC5(CC4)CC5)cn3)c21 [Compound I-20, 4-((5-(6-azaspiro[2.5]octan-6-yl)pyridin-2-yl)amino)-2-(2,6-difluorophenyl)-6,7-dihydro-5H-pyrrolo[3,4-b]pyridin-5-one]	≤ 0.01	> 20	0.01 to 0.1	≤ 2
O=C1NCc2nc(-c3c(F)cccc3F)cc(Nc3ccc(N4CCC5(CCO5)CC4)cn3)c21 [Compound I-25, 4-((5-(1-oxa-7-azaspiro[3.5]nonan-7-yl)pyridin-2-yl)amino)-2-(2,6-difluorophenyl)-6,7-dihydro-5H-pyrrolo[3,4-b]pyridin-5-one]	≤ 0.01	2 to 20	0.01 to 0.1	≤ 2
O=C1NCc2nc(-c3c(F)cccc3F)cc(Nc3ccc(N4CCCC5(CCO5)C4)cn3)c21 (centres unmarked) [Compound I-36, 4-((5-(1-oxa-6-azaspiro[3.5]nonan-6-yl)pyridin-2-yl)amino)-2-(2,6-difluorophenyl)-6,7-dihydro-5H-pyrrolo[3,4-b]pyridin-5-one]	≤ 0.01	2 to 20	0.01 to 0.1	≤ 2
O=C1NCc2nc(-c3c(F)cccc3F)cc(Nc3ccc(N4CCC5(CCOC5)CC4)cn3)c21 [Compound I-52, 4-((5-(2-oxa-8-azaspiro[4.5]decan-8-yl)pyridin-2-yl)amino)-2-(2,6-difluorophenyl)-6,7-dihydro-5H-pyrrolo[3,4-b]pyridin-5-one]	≤ 0.01	≤ 2	≤ 0.01	≤ 2
O=C1NCc2nc(-c3c(F)cccc3F)cc(Nc3ccc(C(=O)N4CCC5(CCOCC5)CC4)cc3)c21 [Compound I-58, 4-((4-(3-oxa-9-azaspiro[5.5]undecane-9-carbonyl)phenyl)amino)-2-(2,6-difluorophenyl)-6,7-dihydro-5H-pyrrolo[3,4-b]pyridin-5-one]	≤ 0.01	2 to 20	≤ 0.01	≤ 2
O=C1NCc2nc(-c3c(F)cccc3F)cc(Nc3ccc(N4C[C@H]5COC[C@H]5C4)cn3)c21 [Compound I-59, 2-(2,6-difluorophenyl)-4-((5-((3aR,6aS)-tetrahydro-1H-furo[3,4-c]pyrrol-5(3H)-yl)pyridin-2-yl)amino)-6,7-dihydro-5H-pyrrolo[3,4-b]pyridin-5-one]	≤ 0.01	2 to 20	0.01 to 0.1	≤ 2
N#Cc1cc(F)c(-c2cc(Nc3ccc(N4CCC5(CC4)CC5)cn3)c3c(n2)CNC3=O)c(F)c1 [Compound I-60, 4-(4-((5-(6-azaspiro[2.5]octan-6-yl)pyridin-2-yl)amino)-5-oxo-6,7-dihydro-5H-pyrrolo[3,4-b]pyridin-2-yl)-3,5-difluorobenzonitrile]	≤ 0.01	2 to 20	0.01 to 0.1	≤ 2
O=C1NCc2nc(-c3c(F)cccc3F)cc(Nc3ccc(N4CCC5(CC4)OCCO5)cn3)c21 [Compound I-62, 4-((5-(1,4-dioxa-8-azaspiro[4.5]decan-8-yl)pyridin-2-yl)amino)-2-(2,6-difluorophenyl)-6,7-dihydro-5H-pyrrolo[3,4-b]pyridin-5-one]	≤ 0.01	≤ 2	0.01 to 0.1	≤ 2
O=C1NCc2nc(-c3c(F)cccc3F)cc(Nc3ccc(N4CCOC45COC5)cn3)c21 [Compound I-65, 4-((5-(2,5-dioxa-8-azaspiro[3.4]octan-8-yl)pyridin-2-yl)amino)-2-(2,6-difluorophenyl)-6,7-dihydro-5H-pyrrolo[3,4-b]pyridin-5-one]	≤ 0.01	2 to 20	≤ 0.01	≤ 2
CCNC(=O)C(C)(C)c1ccc(Nc2cc(-c3c(F)cccc3F)nc3c2C(=O)NC3)cc1 [Compound I-67, 2-(4-((2-(2,6-difluorophenyl)-5-oxo-6,7-dihydro-5H-pyrrolo[3,4-b]pyridin-4-yl)amino)phenyl)-N-ethyl-2-methylpropanamide]	≤ 0.01	2 to 20	≤ 0.01	≤ 2
CC1(C)COc2cc(Nc3cc(-c4c(F)cccc4F)nc4c3C(=O)NC4)ccc21 [Compound I-70, 2-(2,6-difluorophenyl)-4-((3,3-dimethyl-2,3-dihydrobenzofuran-6-yl)amino)-6,7-dihydro-5H-pyrrolo[3,4-b]pyridin-5-one]	≤ 0.01	> 20	0.1 to 1	≤ 2
O=C1CCOc2cc(Nc3cc(-c4c(F)cccc4F)nc4c3C(=O)NC4)ccc21 [Compound I-72, 2-(2,6-difluorophenyl)-4-((4-oxochroman-7-yl)amino)-6,7-dihy-dro-5H-pyrrolo[3,4-b]pyridin-5-one]	0.01 to 0.1	> 20	≥ 1	> 20
N#Cc1cccc(F)c1-c1cc(Nc2ccc(N3CCOC4(CC4)C3)nc2)c2c(n1)CNC2=O [Compound I-79, 2-(4-((6-(4-oxa-7-azaspiro[2.5]octan-7-yl)pyridin-3-yl)amino)-5-oxo-6,7-dihydro-5H-pyrrolo[3,4-b]pyridin-2-yl)-3-fluorobenzonitrile]	≤ 0.01	2 to 20	0.01 to 0.1	≤ 2
O=C1NCc2c1c(Nc1ccc(C(=O)N3CCOCC3)cc1)cc(-c1c(F)cccc1F)[n+]2[O-] [Compound I-84, 2-(2,6-difluorophenyl)-4-((4-(morpholine-4-carbonyl)phenyl)-amino)-5-oxo-6,7-dihydro-5H-pyrrolo[3,4-b]pyridine 1-oxide]	0.01 to 0.1	> 20	≥ 1	> 20
N#Cc1cccc(F)c1-c1cc(Nc2ccc(N3CC[C@@]4(C[C@@H](O)CO4)C3)cn2)c2c(n1)CNC2=O [Compound I-88, 3-fluoro-2-(4-((5-((3R,5R)-3-hydroxy-1-oxa-7-azaspiro[4.4]nonan-7-yl)pyridin-2-yl)amino)-5-oxo-6,7-dihydro-5H-pyrrolo[3,4-b]pyridin-2-yl)benzonitrile]	≤ 0.01	≤ 2	≤ 0.01	≤ 2
